Laboratory results published in patent US20180207111A1, “IMMUNOTHERAPY FOR CASR-EXPRESSING CANCER (E.G. NEUROBLASTOMA)” (HOSPITAL SANT JOAN DE DEU, priority 2015, published 2018).

Tests used:
[1] = system: LA-N-1; experiment: RT-qPCR mRNA expression in LA-N-1 neuroblastoma cells grown with Cinacalcet; assay type: cell-based, Homo sapiens; details: 1 μM Cinacalcet vs DMSO, up to 21 days
Experimental: (§1) Three neuroblastoma cell lines LA-N-1, SK-N-LP and SH-SY5Y were used for this purpose. […] No expression of the CaSR is detectable in SH-SY5Y either. Thus, SK-N-LP and SH-SY5Y were stably transfected with pCMV-CaSR-GFP or pCMV-GFP. All cell lines were grown in the presence of 1 μM Cinacalcet (Selleck Chemicals, S1260) or DMSO for 21 days in P100 plates. Morphology was assessed daily. Total RNA was isolated at days 1, 3, 5, 7, 10, 14 and 21. Several markers were analyzed by RT-qPCR using SYBRgreen and specific primers or Taqman technology and gene-specific Assays-on-Demand (Applied Biosystems) (Table 1).
(§2) These features reached maximal expression between days 7 and 14 (FIG. 1). […] Neuroblastoma cytodifferentiation is an indication of this tumor becoming more benign, less proliferative. […] Moreover, upregulation of these differentiation-associated genes and CTAs both in vitro and in vivo (see Examples 2-4) validates the proposed in vitro model (doses used, time of exposure, etc) as a good model to evaluate neuroblastoma response to treatment with Cinacalcet.

[2] = system: LA-N-1 cells; experiment: Morphological assessment of neuroblastoma cells exposed to Cinacalcet; assay type: cell-based, Homo sapiens; details: 1 μM Cinacalcet vs DMSO; day 3
Experimental: FIG. 1 is a micrograph showing the morphological assessment of LA-N-1 cells exposed to 1 μM Cinacalcet (C) or DMSO (vehicle (V)) for 3 days (3d) and 14 days (14d).
as §1, §2

[3] = system: LA-N-1 xenografts; experiment: Genome-wide expression analysis of xenografts, Affymetrix Human Gene Array 2.1 ST; assay type: in vivo
Experimental: (§3) Total RNA was isolated from 8 xenografts exposed to Cinacalcet (C) and 8 from the control group (V). These were the last 8 tumors excised in each group, so that analyzed xenografts were those exposed to the longest period of treatment (V5-V12 and C4-C11). Two different mRNA expression analyses were conducted: Genome-wide expression analysis by microarrays (Example 3) and by RT-qPCR (Example 4).
Genome-wide expression analyses were performed using Affymetrix Human and Mouse Gene Array 2.1 ST (Affymetrix, reference number 902136 for human gene array and 902120 for mouse gene array) as per manufacturer's protocol. Procedures to analyze results included: Quality control of the arrays (following this step, xenograft C6 was removed from further analyses); filtering and normalization; selection of differentially expressed genes; single comparison (treated versus control samples); list of differentially expressed genes ranked by significance; Volcano plots showing the most differentially expressed genes; heatmaps of the clustered expression profiles; and analysis of biological significance through enrichment analysis against the Gene Ontologies, KEGG (Kyoto Encyclopedia of Genes and Genomes) and Ingenuity pathways.
However, these differences of gene expression were not statistically significant, adjusted P-value >0.05 (Table 3). Nonetheless, in this first analysis, corresponding to heatmap on FIG. 3, it was apparent that a group of genes were specifically modulated in the three tumors exposed to Cinacalcet for the longest period of time. This was confirmed by a second genome-wide expression analysis that examined differentially expressed genes in these three specimens (C9-C11) compared to the 8 vehicle-treated tumors (V5-V12) (FIG. 4).

[4] = system: LA-N-1 xenografts; experiment: RT-qPCR mRNA expression in xenografts; assay type: in vivo, human
Experimental: as §3
Validation of microarrays data was conducted by means of RT-qPCR. This technique was performed using SYBRgreen and specific primers or Taqman technology and gene-specific Assays-on-Demand (Applied Biosystems) (Table 1). This technique was also used to analyze the expression of other CTAs (members of the MAGE family and CTCFL), genes associated with differentiation and calcium-signaling pathways in further detail. Upregulation of CTCFL (FIG. 5A), MAGE A2, MAGE A3 and SSX4/48 (FIG. 5B), NTRK3 (FIG. 5C), ADCY8, PRKCA and RYR2 (FIG. 5D) was detected mainly in the two specimens exposed for the longest time to Cinacalcet (C10-C11).

[5] = three longest-treated xenografts C9-C11 vs vehicle V5-V12, adjusted P 0.00986984
[6] = three longest-treated xenografts C9-C11 vs vehicle V5-V12, adjusted P 0.01746325
[7] = three longest-treated xenografts C9-C11 vs vehicle V5-V12, adjusted P 0.01874439
[8] = three longest-treated xenografts C9-C11 vs vehicle V5-V12, adjusted P 0.02269447
[9] = three longest-treated xenografts C9-C11 vs vehicle V5-V12, adjusted P 0.0249218
[10] = three longest-treated xenografts C9-C11 vs vehicle V5-V12, adjusted P 0.04520061
[11] = three longest-treated xenografts C9-C11 vs vehicle V5-V12, adjusted P 0.04907024
[12] = three longest-treated xenografts C9-C11 vs vehicle V5-V12, adjusted P 0.05146784
[13] = xenografts C4, C5, C7-C11 vs vehicle V5-V12, 10 mg/kg/day oral, adjusted P 0.35366385
[14] = xenografts C4, C5, C7-C11 vs vehicle V5-V12, 10 mg/kg/day oral, adjusted P 0.52209349
[15] = xenografts C4, C5, C7-C11 vs vehicle V5-V12, 10 mg/kg/day oral, adjusted P 0.61235652
[16] = xenografts, RT-qPCR, mainly in C10-C11 (longest exposure), FIG. 5B
[17] = xenografts, RT-qPCR, mainly in C10-C11 (longest exposure), FIG. 5D

SMILES: C[C@@H](NCCCc1cccc(C(F)(F)F)c1)c1cccc2ccccc12 [Cinacalcet]
- CTCFL mRNA fold increase [1]: 1.2 fold
- MAGEA2 mRNA fold increase [1]: 2.9 fold
- MAGEA3 mRNA fold increase [1]: 1.4 fold
- NFL mRNA fold increase [1]: ns
- NTRK1 mRNA fold increase [1]: 3.2 fold
- NTRK3 mRNA fold increase [1]: 2.4 fold
- S100-β mRNA fold increase [1]: 6.9 fold
- SSX4/4B mRNA fold increase [1]: 3.8 fold
- TUBB3 mRNA fold increase [1]: ns
- GAGE-P1 mRNA fold increase ([1]; primer pair GAGE P1): 2.7 fold
- GAGE-P2 mRNA fold increase ([1]; primer pair GAGE P2): 7.6 fold
- GAGE-P3 mRNA fold increase ([1]; primer pair GAGE P3): 5.1 fold
- Morphological features of neuronal differentiation [2]: extensive neurite outgrowth
- Log fold change, probe 17104825 (CXorf49//CXorf49B) ([3]; three longest-treated xenografts C9-C11 vs vehicle V5-V12, adjusted P 0.00358764): 1.857
- Log fold change, probe 16695923 (FAM78B) [3, 5]: 1.543
- Log fold change, probe 17070589 (CNBD1) [3, 5]: 1.801
- Log fold change, probe 17103272 (SSX4B//SSX4) [3, 5]: 1.389
- Log fold change, probe 17104821 (CXorf49//CXorf49B) [3, 5]: 2.714
- Log fold change, probe 16972634 (LOC285500) ([3]; three longest-treated xenografts C9-C11 vs vehicle V5-V12, adjusted P 0.01361569): 1.359
- Log fold change, probe 17103626 (GAGE12G//GAGE12F//GAGE12I//GAGE7//... GAGE family, Entrez 645073) ([3]; three longest-treated xenografts C9-C11 vs vehicle V5-V12, adjusted P 0.01682153): 2.202
- Log fold change, probe 17103647 (GAGE2A//GAGE2C//GAGE2B//GAGE2D//... GAGE family, Entrez 729447) [3, 6]: 2.059
- Log fold change, probe 17103679 (GAGE2A//GAGE2C//GAGE12G//GAGE12F//... GAGE family, Entrez 729447) [3, 6]: 2.03
- Log fold change, probe 16837128 (PRKCA) [3, 7]: 1.165
- Log fold change, probe 16926807 (CECR7) [3, 7]: 1.23
- Log fold change, probe 17103653 (GAGE12C//GAGE12D//GAGE12E//GAGE12G//... GAGE family, Entrez 729422) [3, 7]: 2.183
- Log fold change, probe 17103655 (GAGE12C//GAGE12D//GAGE12E//GAGE12H//... GAGE family, Entrez 729422) [3, 7]: 2.032
- Log fold change, probe 17103673 (GAGE12G//GAGE12C//GAGE12D//GAGE12E//... GAGE family, Entrez 645073) [3, 7]: 1.962
- Log fold change, probe 16982161 (PDLIM3) [3, 8]: 1.187
- Log fold change, probe 16986694 (SPZ1) [3, 8]: 1.239
- Log fold change, probe 17103614 (GAGE12J//GAGE2D//GAGE2E//GAGE8//... GAGE family, Entrez 729396) [3, 8]: 1.853
- Log fold change, probe 17103620 (GAGE13//GAGE12D//GAGE12E//GAGE12B//... GAGE family, Entrez 645051) [3, 8]: 2.07
- Log fold change, probe 17103690 (GAGE12H//GAGE12C//GAGE12D//GAGE12E//... GAGE family, Entrez 729442) [3, 8]: 1.931
- Log fold change, probe 17110576 (SSX4//SSX4B) [3, 8]: 1.272
- Log fold change, probe 16938527 (RBMS3) ([3]; three longest-treated xenografts C9-C11 vs vehicle V5-V12, adjusted P 0.02361429): 1.243
- Log fold change, probe 16711753 (PROSER2-AS1) [3, 9]: 1.36
- Log fold change, probe 16838249 (LOC100507351) [3, 9]: 1.078
- Log fold change, probe 17111994 (RGAG4) [3, 9]: 1.076
- Log fold change, probe 17113928 (TENM1) ([3]; three longest-treated xenografts C9-C11 vs vehicle V5-V12, adjusted P 0.03166044): 1.577
- Log fold change, probe 16679142 (RYR2) ([3]; three longest-treated xenografts C9-C11 vs vehicle V5-V12, adjusted P 0.04211565): 1.356
- Log fold change, probe 17043613 (LOC100505938) ([3]; three longest-treated xenografts C9-C11 vs vehicle V5-V12, adjusted P 0.04288827): 1.14
- Log fold change, probe 16970118 (SYNPO2) [3, 10]: 1.722
- Log fold change, probe 17115014 (GABRA3) [3, 10]: 1.248
- Log fold change, probe 16732397 (POU2F3) ([3]; three longest-treated xenografts C9-C11 vs vehicle V5-V12, adjusted P 0.0462006): 1.148
- Log fold change, probe 16752147 (NEUROD4) [3, 11]: 1.009
- Log fold change, probe 16928510 (SEZ6L) [3, 11]: 1.17
- Log fold change, probe 16812942 (NTRK3) [3, 12]: 1.186
- Log fold change, probe 16920617 (CTCFL) [3, 12]: 1.866
- Log fold change, probe 16837226 (SNORA38B) [3, 13]: 1.107
- Log fold change, probe 16902703 (POTEF) [3, 13]: 1.124
- Log fold change, probe 17103626 (GAGE12G//GAGE12F//GAGE12I//GAGE7//... GAGE family, Entrez 645073) ([3]; xenografts C4, C5, C7-C11 vs vehicle V5-V12, 10 mg/kg/day oral, adjusted P 0.39648602): 1.489
- Log fold change, probe 17103647 (GAGE2A//GAGE2C//GAGE2B//GAGE2D//... GAGE family, Entrez 729447) ([3]; xenografts C4, C5, C7-C11 vs vehicle V5-V12, 10 mg/kg/day oral, adjusted P 0.4625512): 1.341
- Log fold change, probe 17103679 (GAGE2A//GAGE2C//GAGE12G//GAGE12F//... GAGE family, Entrez 729447) ([3]; xenografts C4, C5, C7-C11 vs vehicle V5-V12, 10 mg/kg/day oral, adjusted P 0.47520907): 1.318
- Log fold change, probe 17103614 (GAGE12J//GAGE2D//GAGE2E//GAGE8//... GAGE family, Entrez 729396) [3, 14]: 1.191
- Log fold change, probe 17103620 (GAGE13//GAGE12D//GAGE12E//GAGE12B//... GAGE family, Entrez 645051) [3, 14]: 1.314
- Log fold change, probe 17103653 (GAGE12C//GAGE12D//GAGE12E//GAGE12G//... GAGE family, Entrez 729422) [3, 14]: 1.354
- Log fold change, probe 17103655 (GAGE12C//GAGE12D//GAGE12E//GAGE12H//... GAGE family, Entrez 729422) [3, 14]: 1.313
- Log fold change, probe 17103673 (GAGE12G//GAGE12C//... GAGE family, Entrez 645073) [3, 14]: 1.257
- Log fold change, probe 17103690 (GAGE12H//GAGE12C//GAGE12D//GAGE12E//... GAGE family, Entrez 729442) [3, 14]: 1.261
- Log fold change, probe 16920617 (CTCFL) [3, 15]: 1.137
- Log fold change, probe 17104821 (CXorf49//CXorf49B) [3, 15]: 1.423
- Increase in relative mRNA expression of GAGE mRNA ([4]; xenograft specimen C11, long-term treatment, data not shown): up to 100 fold
- Relative mRNA expression of CTCFL ([4]; xenografts, RT-qPCR, mainly in C10-C11 (longest exposure), FIG. 5A): Upregulation
- Relative mRNA expression of MAGE A2 [4, 16]: Upregulation
- Relative mRNA expression of MAGE A3 [4, 16]: Upregulation
- Relative mRNA expression of SSX4/48 [4, 16]: Upregulation
- Relative mRNA expression of NTRK3 ([4]; xenografts, RT-qPCR, mainly in C10-C11 (longest exposure), FIG. 5C): Upregulation
- Relative mRNA expression of ADCY8 [4, 17]: Upregulation
- Relative mRNA expression of PRKCA [4, 17]: Upregulation
- Relative mRNA expression of RYR2 [4, 17]: Upregulation
